{"source": "paper PMC3326641", "about": "(Journal of Medicinal Chemistry, 2012)", "target": "T1, TrxR (rat liver thioredoxin reductase) (Rattus norvegicus, UniProt O89049)", "T1 sequence (O89049 1-499)": "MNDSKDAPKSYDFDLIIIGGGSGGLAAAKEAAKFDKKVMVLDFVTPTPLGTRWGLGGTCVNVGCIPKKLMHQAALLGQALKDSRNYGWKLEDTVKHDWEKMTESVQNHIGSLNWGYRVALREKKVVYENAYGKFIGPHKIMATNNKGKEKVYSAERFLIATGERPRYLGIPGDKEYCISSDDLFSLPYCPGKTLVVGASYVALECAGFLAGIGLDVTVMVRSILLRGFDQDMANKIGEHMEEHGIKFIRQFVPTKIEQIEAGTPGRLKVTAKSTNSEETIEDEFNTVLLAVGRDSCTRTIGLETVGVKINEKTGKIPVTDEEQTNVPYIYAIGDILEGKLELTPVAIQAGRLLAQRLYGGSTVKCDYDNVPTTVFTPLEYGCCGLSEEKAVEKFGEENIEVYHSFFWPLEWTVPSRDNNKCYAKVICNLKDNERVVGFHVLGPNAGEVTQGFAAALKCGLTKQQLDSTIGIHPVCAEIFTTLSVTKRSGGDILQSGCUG", "assay": "DTNB reduction, absorbance at […] nm", "assay_type": "biochemical", "data": [{"smiles": "CC(C)(C)OC(=O)n1ccc2c[c]([Au-][P+](C3CCCCC3)(C3CCCCC3)C3CCCCC3)ccc21", "note": "[compound 4, [5-{Tricyclohexylphosphine gold(I)}-tert-butyl 1H-indole-1-carboxylate]]", "values": [{"measurement": "inhibition at 40 µM", "result": 39, "unit": "%"}]}]}
